From publication PMC12549899 (Nature Communications, 2025)

Test: Mixing of DMSO master stock into aqueous cryo-EM sample (precipitation)
Assay type: physicochemical
Details: 0.2 µL of 2.17 M DMSO stock into 40 µL DrOTOP1 sample, nominal ≤ 10.85 mM, 0.5% DMSO
Experimental: All protein purification steps were performed at 4 °C, and buffers were chilled on ice until use unless otherwise noted. Cell pellets were thawed in a room-temperature water bath and resuspended in Solubilization Buffer (25 mM Tris pH 8.0, 150 mM NaCl, 1% n-dodecyl-β-d-maltoside (DDM), 0.15% cholesteryl hemisuccinate (CHS), […], 1 mM phenylmethylsulfonyl Fluoride (PMSF), 2 µM pepstatin A and 2 mM dithiothreitol (DTT)) and was stirred for 1 – 3 h for detergent solubilization. The lysate was centrifuged at 40,000 × g and the supernatant was collected. […]. Next, the mixture was flowed over a gravity chromatography column, and flowthrough containing GFP-cleaved DrOTOP1 was collected and concentrated in a 100 kDa cutoff centrifugal concentrator (Amicon® Ultra or Pierce™) that was pre-equilibrated with SEC1 Buffer, to 500 µL volume. […] The resulting peaks were analyzed with sodium dodecyl sulfate-polyacrylamide gel electrophoresis (SDS-PAGE), and fractions corresponding to dimeric DrOTOP1 were pooled. […] The resulting peaks were analyzed with SDS-PAGE, and fractions corresponding to dimeric DrOTOP1 in lipid nanodisc were pooled and concentrated to 2 – 5 mg/mL with a 100 kDa cutoff centrifugal concentrator (Amicon® Ultra or Pierce™). […]

## C=C(C)COc1ccccc1NC(=O)c1nc[nH]c1C [C2.2]
  Solubility in aqueous buffer: visible precipitation formed
